Laboratory results reported in PubChem BioAssay (NCI).
“And” between values parts separate entries of the source, which are not always exact repeats. Equal values may be shown once.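 48-hour exposure; five concentrations; linearly interpolated endpoints. The concentration for 50% growth inhibition is given as GI50. TGI: concentration producing complete growth inhibition.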

Tests used:
Test in all cases: NCI-60 cell line screen, 48 h
SF-268 CNS = tested on: SF-268 CNS
SK-MEL-5 melanoma = tested on: SK-MEL-5 melanoma
UACC-62 melanoma = tested on: UACC-62 melanoma
M14 melanoma = tested on: M14 melanoma
KM12 colon = tested on: KM12 colon
NCI-H460 lung = tested on: NCI-H460 lung
HL-60(TB) leukemia = tested on: HL-60(TB) leukemia
HCC-2998 colon = tested on: HCC-2998 colon
K-562 leukemia = tested on: K-562 leukemia
MALME-3M melanoma = tested on: MALME-3M melanoma

Row | SMILES | GI50 (SF-268 CNS) [µM] | TGI (SF-268 CNS) | GI50 (SK-MEL-5 melanoma) [µM] | TGI (SK-MEL-5 melanoma) | GI50 (UACC-62 melanoma) [µM] | TGI (UACC-62 melanoma) | GI50 (M14 melanoma) [µM] | TGI (M14 melanoma) | GI50 (KM12 colon) [µM] | TGI (KM12 colon) | GI50 (NCI-H460 lung) [µM] | TGI (NCI-H460 lung) | GI50 (HL-60(TB) leukemia) [µM] | TGI (HL-60(TB) leukemia) | GI50 (HCC-2998 colon) [µM] | TGI (HCC-2998 colon) | GI50 (K-562 leukemia) [µM] | TGI (K-562 leukemia) | GI50 (MALME-3M melanoma) [µM] | TGI (MALME-3M melanoma)
1 | O=c1[nH]c2ccccc2cc1-c1nnc(Cc2ccccc2)o1 | 10.7 | 42 µM | 3.43 | 16.4 µM | 3.43 | 15.6 µM | 3.16 | 15.2 µM | 10.4 | 28.4 µM | 6.63 | 28.3 µM | 3.43 | 21.2 µM | 12.7 | 27.5 µM | 3.29 | 14.4 µM | 3.94 | 16.2 µM
2 | N=C(N)n1cc(/C=N/N=C(N)N)cn1 |  | > 100 µM |  | > 100 µM |  | > 100 µM |  | > 100 µM |  | > 100 µM |  | > 100 µM |  | > 100 µM |  | > 100 µM |  | > 100 µM |  | > 100 µM
3 | CC(=O)C1(C(=O)C(=[N+]=[N-])S(=O)(=O)c2ccccc2)CC1 |  | > 100 µM |  | > 100 µM |  | > 100 µM |  | > 100 µM |  | > 100 µM |  | > 100 µM |  | > 100 µM |  | > 100 µM |  | > 100 µM |  | > 100 µM
4 | OCC1OC(OC2(CO)OC(CO)C(O)C2O)C(O)C(O)C1O (stereo not drawn) | > 100 | > 100 µM | > 100 | > 100 µM | > 100 | > 100 µM | > 100 | > 100 µM | > 100 | > 100 µM | > 100 | > 100 µM | > 100 | > 100 µM | > 100 | > 100 µM | > 100 | > 100 µM | > 100 | > 100 µM
5 | Nc1ncnc2c1c(-c1ccc(Oc3ccccc3)cc1)nn2CC1SSCC1O (stereo not drawn) | 0.126 | 7.01 µM | 1.29 | 5.07 µM | 0.63 | 1.33 µM | 0.0609 | 0.121 µM | 0.324 | 7.67 µM | 0.111 | 7.97 µM | 1.49 | 7.99 µM | 6.75 | 20.5 µM | 0.788 | 7.39 µM | 0.847 | 3.78 µM
6 | O=C(CCCCN1CCN(CCCCC(=O)Nc2ccccc2C#C/C=C\C#Cc2ccccc2C(F)(F)F)CC1)Nc1ccccc1C#C/C=C\C#Cc1ccccc1C(F)(F)F | 12.3 | 32.9 µM | 9.26 | 16.9 µM | 11 | 22.8 µM | 11.7 | 25.9 µM | 13.2 | 33 µM | 11.2 | 25.5 µM | 11.9 | 24.6 µM | 9.14 | 17.5 µM | 8.04 | 34.8 µM | 12.2 | 29.5 µM
7 | CCCCCCCCCCCCCC(=O)O[C@H]1CC[C@H](NC(=O)[C@H](OC)[C@H](O)[C@@H](O)[C@H](O)/C=C/C(C)C)C(=O)N(C)C1 | 0.0235 | 15 µM and 2.38 µM | 0.00347 | 0.337 µM and 0.0726 µM | 0.00238 | 0.0655 µM and 0.00779 µM | 0.00238 | 1.75 µM and 0.413 µM | 0.00238 | 15 µM and 2.96 µM | 0.00238 | 0.371 µM and 3.01 µM | 0.00238 | 2.43 µM and 3.71 µM | 0.00238 | 0.63 µM and 4.25 µM | 0.00238 | 15 µM and > 23.8 µM | 0.00717 | 15 µM and > 23.8 µM
8 | O=C(Nc1nc(=S)[nH][nH]1)C(=O)C(c1cnc2ccc([N+](=O)[O-])cc2n1)[N+](=O)[O-] (stereo not drawn) |  | > 100 µM |  | > 100 µM |  | > 100 µM |  | > 100 µM |  | > 100 µM |  | > 100 µM |  | > 100 µM |  | > 100 µM |  | > 100 µM |  | > 100 µM
9 | CCOC(=O)C(Cc1ccc(N=NN(C)C)cc1)NC(=O)CC1c2ccccc2-c2ccccc21 (stereo not drawn) |  | > 100 µM |  | > 100 µM |  | > 100 µM |  | > 100 µM |  | > 100 µM |  | > 100 µM |  | > 100 µM |  | > 100 µM |  | > 100 µM |  | > 100 µM
10 | O=C(O)c1ccccc1C(=O)c1ccco1 |  | > 100 µM |  | > 100 µM |  | > 100 µM |  | > 100 µM |  | > 100 µM |  | > 100 µM |  | > 100 µM |  | > 100 µM |  | > 100 µM |  | > 100 µM
11 | CC1CCCP(=O)(c2ccccc2)CCC1 (stereo not drawn) |  | > 100 µM |  | > 100 µM |  | > 100 µM |  | > 100 µM |  | > 100 µM |  | > 100 µM |  | > 100 µM |  | > 100 µM |  | > 100 µM |  | > 100 µM
12 | CCc1ccc(Oc2c(-c3ccc(OCc4ccc(Cl)cc4)cc3O)nn(C)c2C(F)(F)F)cc1 | 1.25 | 2.9 µM | 1.22 | 2.47 µM | 0.516 | 2.25 µM | 1.17 | 2.68 µM | 0.389 | 1.61 µM | 0.356 | 1.31 µM | 1.42 | 3.62 µM | 2.44 | 9.62 µM | 0.39 | 1.58 µM | 1.14 | 2.6 µM
13 | COC(=O)C1CCC(C)CC1=O (stereo not drawn) |  | > 100 µM |  | > 100 µM |  | > 100 µM |  | > 100 µM |  | > 100 µM |  | > 100 µM |  | > 100 µM |  | > 100 µM |  | > 100 µM |  | > 100 µM
14 | O=C1c2cccc3c(N4CCOCC4)ccc(c23)C(=O)N1CCN1CCN(CCCCCN2CCN(CCN3C(=O)c4cccc5c(N6CCOCC6)ccc(c45)C3=O)CC2)CC1 | > 100 | > 100 µM | 57.2 | > 100 µM | 77.6 | > 100 µM | > 100 | > 100 µM |  |  | > 100 | > 100 µM | 33.7 | > 100 µM | 17.5 | 65.5 µM | 36 | > 100 µM | > 100 | > 100 µM
15 | C/C(CCN(C)C)=N/O |  | 2.49 µM |  | 24.3 µM |  | 24 µM |  | 21.9 µM |  | 25.5 µM |  | 58.5 µM |  | 13.5 µM |  | 25.2 µM |  | 6.97 µM |  | 10.8 µM
16 | Cc1ccc(-n2c3nc(=O)n(C)c(=O)c-3nc3ccccc32)c(C)c1 |  | 34.8 µM |  | 18.5 µM |  | 5.49 µM |  | 18.6 µM |  | 26.5 µM |  | 15.3 µM |  | 29.2 µM |  | 19 µM |  | 40.6 µM |  | 12.9 µM
